Values of other authors as cited in article PMC8823334 (ACS chemical neuroscience, 2021).

Tests used:
PAR4 [1] = target: T1, PAR4 (Homo sapiens, UniProt Q96RI0)
T1 sequence (Q96RI0 18-385): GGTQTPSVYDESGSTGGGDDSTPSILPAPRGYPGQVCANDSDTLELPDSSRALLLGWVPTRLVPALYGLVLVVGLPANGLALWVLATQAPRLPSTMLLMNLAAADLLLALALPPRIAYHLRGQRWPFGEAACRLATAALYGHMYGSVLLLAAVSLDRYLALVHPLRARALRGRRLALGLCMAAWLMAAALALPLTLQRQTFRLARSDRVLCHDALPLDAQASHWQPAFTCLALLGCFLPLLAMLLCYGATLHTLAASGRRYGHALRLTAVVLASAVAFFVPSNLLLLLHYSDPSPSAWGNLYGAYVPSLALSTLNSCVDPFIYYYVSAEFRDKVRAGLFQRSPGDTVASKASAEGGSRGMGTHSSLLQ

PAR4 [2] = conditions: mice, suppression of neuroinflammation in astrocytes

## COc1cc(OCc2nc(N3CCOCC3)sc2C)c2cc(-c3cn4nc(OC)sc4n3)oc2c1 [Compound 1]
PAR4 [1]
  mode of PAR4 inhibition: noncompetitive mode of inhibition
PAR4 [2]
  protection against traumatic brain injury: protected against traumatic brain injury (TBI) in mice
